Measured values taken from article PMC12350126, “A novel carboxamide bromodomain inhibitor attenuates osteoarthritis via epigenetic repression of NF-κB and MAPK signaling” (Frontiers in Immunology, 2025).

Columns and labels:
[1] = target: T1, BRD2 BD1 (Homo sapiens, UniProt P25440); assay: Biosensor binding kinetics assay (Octet), BRD2 BD1
T1 construct: biotinylated BRD2 BD1; biotin (biotinylated protein); made in house; host or cells: Escherichia coli BL21(DE3)
Procedure: Binding kinetics were assessed using the Octet® R2 system (Sartorius, Göttingen, Germany). Superstreptavidin biosensors were loaded with biotinylated BRD2 BD1, BRD2 BD2, BRD3 BD1, BRD3 BD2, BRD4 BD1, BRD4 BD2, or biotin alone (as a negative control) in PBST buffer (phosphate-buffered saline containing 0.02% Tween 20 and 5% DMSO). The sensors were then dipped into compound solutions for 10 min. To evaluate association kinetics (kon), each sensor was exposed to serial dilutions of the protein for 180 s, followed by dipping them into PBST buffer to assess dissociation kinetics (koff). For control, a separate sensor loaded with the compound was dipped into PBST alone. Competition binding assays were performed by exposing the compound-loaded sensor to mixtures of proteins and test compounds.

[2] = system: mouse primary articular chondrocytes; assay: Chondrocyte viability by lactate dehydrogenase (LDH) assay; assay type: cell-based; details: 12 h, NCD 0, 10, 20, 50, 100 µM, JQ1 different concentrations
[3] = system: PGE2 production in IL-1β-treated mouse articular chondrocytes; assay: PGE2 ELISA in IL-1β-treated chondrocytes; assay type: cell-based; details: NCD 10, 50, 100 µM, dose-dependent
Procedure: NCD was supplied by Benobio Co (Gyeonggi-do, Korea), and IL‐1β was purchased from GenScript (Piscataway, NJ, USA). NCDs were dissolved in phosphate-buffered saline (PBS) for oral administration or IA injection.
PGE2 expression was determined by enzyme-linked immunosorbent assay (ELISA) using a PGE2 Immunoassay Kit (R&D Systems, Minneapolis, MN, USA). The levels of PGE2 in the conditioned medium of articular chondrocytes were determined. Collagenase activity was measured using a VICTOR X3 Microplate Reader (PerkinElmer, Waltham, MA, USA) at the excitation/emission wavelengths of 490/530 nm following the protocol provided by the manufacturer.

[4] = system: DMM-induced OA in C57BL/6J mice; assay: DMM-induced OA mouse model, intra-articular injection; assay type: in vivo
Procedure: All experiments were independently performed with at least three biological replicates to ensure reproducibility. For in vivo studies, animals were randomly assigned to treatment or control groups. To create a DMM-induced OA model, DMM surgery was performed on 12-week-old male C57BL/6J mice, following a previously reported protocol ([26]). Subsequently, NCD was either orally administered or injected in mice; the NCD (50 mg/kg) was orally administered on alternate days 4 weeks after DMM, whereas IA knee injection of NCD (10 μg) was administered once a week after 4 weeks. The mouse knee joint was processed for histological analysis 10 weeks after surgery. All experiments were independently performed with at least three biological replicates to ensure reproducibility. For in vivo studies, animals were randomly assigned to treatment or control groups. For in vitro experiments, cells were plated using a randomized layout across multi-well plates to avoid positional effects and ensure unbiased treatment assignment
All histological samples were prepared independently by two researchers. Cartilage destruction was evaluated based on Safranin O staining and scored using the OA Research Association International (OARSI) grading system ([29]). Additionally, all histological samples were analyzed through osteophyte maturity scoring and subchondral bone plate (SBP) thickness. Osteophyte maturity was scored as described previously ([30]). Briefly, the scoring was as follows: 0 = none, 1 = predominantly cartilaginous, 2 = mixed cartilage and bone with active vascular invasion and endochondral ossification, 3 = predominantly bone. SBP thickness was measured to analyze subchondral bone sclerosis. All experiments were independently performed over at least three replicates. […] For each sample, measurements were performed on serial sections, and the mean value was calculated for analysis. The samples were […] by treating with 0.5 M ethylenediamine tetraacetic acid (pH 8.0) for 2 weeks. Next, mouse knee joint samples were fixed using 4% paraformaldehyde and embedded in paraffin. The paraffin-embedded samples were cut into 5-μm sections and fixed on glass slides. The tissue sections were then hydrated using a graded ethanol series, which removed paraffin and xylene. Mouse knee joint sections were immunohistochemically analyzed using anti-Mmp3 (ab52915, Abcam, Cambridge, UK), anti-Mmp13 (ab51072, Abcam), and anti-Cox2 (66351-I-Ig, ProteinTech, Rosemont, ILllinois, USA).

[5] = IA injection 10 μg once a week from 4 weeks after DMM, 10 weeks after surgery, vs PBS

T1 sequence (P25440 74-180 limits assumed): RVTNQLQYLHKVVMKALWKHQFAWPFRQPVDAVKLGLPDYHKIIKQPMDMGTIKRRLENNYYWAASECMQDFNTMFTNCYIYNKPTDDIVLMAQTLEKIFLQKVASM

SMILES: CNC(=O)CC1C(=O)NCCN1Cc1ccc(-c2ccccc2-c2cccc3c2CN(C)C3=O)o1 (stereo not drawn) [NCD, N-methyl-2-(1-((5-(2-(2-methyl-1-oxoisoindolin-4-yl)phenyl)furan-2-yl)methyl)-3-oxopiperazin-2-yl)acetamide]
- Kd [1]: 0.026 µM
- Cell viability / cytotoxicity (LDH assay) [2]: no significant cytotoxic effects
- PGE2 production [3]: significantly decreased
- OARSI grade [4, 5]: significant reduction
- Osteophyte maturity [4, 5]: significant reduction
- SBP thickness [4, 5]: significant reduction
- Expression of Mmp3, Mmp13 and Cox2 in knees (immunohistochemistry) ([4]; IA injection 10 μg, DMM mice): lower expression levels
- NITEGE expression ([4]; IA injection 10 μg, DMM mice): reduced
- Type II collagen levels (immunohistochemistry) ([4]; IA injection 10 μg, DMM mice): partially preserved
